In patent publication US20090298799A1, “Methods of Treating Osteoporosis and Secondary Hyperparathyroidism Using 20-Methyl, Gemini Vitamin D3 Compounds” (BioXell S.p.A., priority 2005, published 2009):

Columns and labels:
[1] = Determination of maximum tolerated dose (MTD) without hypercalcemia; set-up: species or system mice; conditions: female, C57BL/6, mouse, in vivo, po; p.o. daily for four days; highest dose without hypercalcemia (serum calcium>10.7 mg/dl)
Procedure: The maximum tolerated dose of the vitamin D3 compounds of the invention were determined in eight week-old female C57BL/6 mice (3 mice/group) dosed orally (0.1 ml/mouse) with various concentrations of Vitamin D3 analogs daily for four days. Analogs were formulated in miglyol for a final concentration of 10, 30, 100 and 300 μg/kg when given at 0.1 ml/mouse p.o. daily. Blood for serum calcium assay was drawn by tail bleed on day five, the final day of the study. Serum calcium levels were determined using a colormetric assay (Sigma Diagnostics, procedure no. 597). The highest dose of analog tolerated without inducing hypercalcemia (serum calcium>10.7 mg/dl) was taken as the maximum tolerated does (MTD).

[2] = system: OVX rats; assay: Osteoporosis, early curative treatment in 3 month old OVX rats; conditions: for Tibia (μCT) increased over OVX controls / vertebrae (L5) increase over OVX control rats: 5/7 days for 3 weeks; for efficacy compared with calcitriol: 3 month old OVX rats
Procedure: Three-month old Sprague Dawley female rats were purchased from CERJ or Charles River, France. Rats underwent bilateral ovariectomy (OVX) or sham-operation (Sham) under anesthesia with intraperitoneal ketamine hydrochloride (50 mg/kg BW). The success of ovariectomy was evidenced at necropsy by weighing the uterus and visualizing the absence of ovarian tissue.
Throughout the whole experiment, rats were housed at 22±2° C. with a 12 h:12 h light-dark cycle. The animals were pair-fed a standard diet (Safe, 0.6% P, 0.8% Ca) and received Eau de Volvic ad libitum.
The treatment started 3 weeks post-ovariectomy. Compounds were firstly dissolved in ethanol (1 mg/ml). The other dilutions were done in Miglyol 812N. Compounds or vehicle (sham, OVX control rats) were given by daily oral gavage (5 ml/kg), 5/7 days for 3 weeks. […] Before the beginning of treatment, groups of sham and OVX rats were sacrificed to serve as basal controls. Ten and three days before sacrifice, rats were given subcutaneous injections of calcein (10 ml/kg, Sigma) to determine dynamic changes in bone tissue. The day before sacrifice, the rats were fasted and housed in metabolic cages to collect overnight urines.
At necropsy, right long bones were removed and fixed in 70% ethanol for further μCT (tibia and femur) and histomorphometry (tibia) analysis. The whole left legs were collected for pQCT analysis. The fourth and fifth lumbar vertebrae were dissected for DXA analysis. Excised tibias were scanned by a μCT machine (Scanco Medical) with software version 3.1 for a 2D-evaluation. The scans started at a distance of 1 mm of the reference line in the proximal tibia metaphysis. Five 0.5 mm-spaced slices were analyzed. The slice thickness was 20-30 μm. Bone volume (BV/TV) and trabeculae number (TbN) and thickness (TbTh) were assessed. Excised tibias were scanned by a pQCT machine (Stratec XCT Research SA+) with software version 5.4 to assess trabecular and cortical Bone Mineral Density (BMD) of proximal tibia metaphysis. For analysis of trabecular bone, the distance between the reference line and the first measurement line was 3 mm. Three other lines separated by 1 mm were analyzed. The cortical BMD was analyzed at 20 mm from the reference line. The voxel size was 0.10 mm. The peel mode used was 20/50. The BMD of excised fourth (L4) and fifth (L5) lumbar vertebrae were scanned by a DXA machine (Hologic QDR 4500) with software optimized for small animal studies. The regional high-resolution software selected a thin X-ray aperture. The large region was 68-71 and the narrow one was 35-21 to assess the body of the vertebrae of L4 and L5.
Left tibia from each rat was removed and dissected free of adjacent tissues. The bones were fixed in 70% ethanol, dehydrated in graded concentrations of ethanol, defatted in xylene, then embedded without decalcification in methyl methacrylate. Five μm-thick sections were made and stained with toluidine blue and cyanin solochrome and used for structural and cellular parameters evaluation. Ten μm-thick sections remained unstained for florescence microscopy observations. Structural and dynamic parameters were measured in the secondary spongiosa of the proximal tibial metaphysis situated about 1 mm distal from the growth plate-epiphyseal junction. Structural parameters, i.e. trabecular bone volume BV/TV (%), trabecular thickness (μm), connections and number, as well as cellular parameters (osteoblast, osteoid surfaces and osteoclast number), and dynamic parameters (mineralizing surface, mineral apposition rate, bone formation rate) were evaluated.
Osteocalcin (IRMA kit, Immutopics), DPyr (Metra DPD EIA kit), CTx (Ratlaps ELISA, Nordic, Bioscience Diagnostics) Ca, P, creatinin (Cobas Mira analyser) and rat PTH (Immutopics) were assessed in serum or urine material according to the manufacturer's instructions.

[3] = system: nephrectomized rats; assay: Secondary hyperparathyroidism, 5/6 nephrectomized (uremic) rats; type: in vivo, Sprague Dawley rats; conditions: for efficacy in PTH suppression and bone porosity / results compared to Zemplar in PTH suppression, CaxP, bone porosity and aortic calcification / safety profile compared to Zemplar: rat, in vivo; for bone protection / efficacy: rats with moderate renal failure
Procedure: Three month-old Sprague Dawley male rats (220-250 g BW) were purchased from CERJ, France, Rats were ⅚ nephrectomized (right kidney and ⅔ left kidney removed by surgery) or sham-operated (controls) by the supplier according to Prostrakan'procedures. The success of nephrectomy was evidenced at necropsy by visualizing the kidney tissue and measuring serum creatinin and urea. There were 10-12 rats in each group. […] Twenty days after operation, phosphate (Na2HPO4) was added to Eau de Volvic (6 g/l). Experimental procedures were approved by the Animal Ethics Committee of Prostrakan and by DDSV of Seine St Denis, France. The treatment started 82 days post-nephrectomy. Compounds were firstly dissolved in ethanol (1 mg/ml). The other dilutions were done in Miglyol 812N. […] Before the beginning of treatment, groups of control and nephrectomized rats were sacrificed to served as basal controls.
The whole left legs were collected for pQCT analysis. […] Five 0.5 mm-spaced slices were analyzed. The slide thickness was 20-30 μm. Bone volume (BV/TV) and trabecular number (TbN) and thickness (TbTh) were assessed. […] Three other lines separated by 1 mm were analyzed. […] The voxel size was 0.10 mm. The peel mode used was 20/50.
Ten μm-thick sections remained unstained for fluorescence microscopy observations.
To assess the calcification, aortas (6 cm-segment starting at arch), hearts and remaining kidney tissues were removed and fixed for histology analysis. Aortas segments were fixed in 3.7% formaldehyde and embedded in paraffin. Five μm cross sections were made and stained with a Von Kossa method for the calcification evaluation. The following grading of the calcification was used: moderate when less 50% of the aortic perimeter was calcified; severe when 100% of the aortic perimeter was calcified.
Data were expressed as mean±sem. […] The ANOVA test was used for all groups.

[4] = system: renin; assay: Renin inhibition in vitro
[5] = system: IFN-γ production; assay: IFN-γ production by allogeneic T cell activation in the mixed leukocyte response (MLR); type: cell-based; conditions: 120 h; allogeneic PBMC from 2 donors, 5 days, ELISA
Procedure: Immature dendritic cells (DC) were prepared as described in Romani, N. et al., J. Immunol. Meth. 196.137. IFN-γ production by allogeneic T cell activation in the mixed leukocyte response (MLR) was determined as described in Penna, G., et al., J. Immunol., 164: 2405-2411 (2000).
Briefly, peripheral blood mononuclear cells (PBMC) were separated from buffy coats by Ficoll gradient and the same number (3×105) of allogeneic PBMC from 2 different donors were co-cultured in 96-well flat-bottom plates. After 5 days, IFN-γ production in the MLR assay was measured by ELISA and the results expressed as amount (nM) of test compound required to induce 50% inhibition of IFN-γ production (IC50) (Table 1).

| Compound | MTD at 4 days [1] | efficacy compared with calcitriol [2] | peritrabecular fibrosis (tibia) ([3]; 0.1 μg/kg) | efficacy in PTH suppression and bone porosity [3] | results compared to Zemplar in PTH suppression, CaxP, bone porosity and aortic calcification [3] | safety profile compared to Zemplar [3] | bone protection [3] | efficacy [3] | inhibition of renin in vitro compared with calcitriol [4] | results compared to Zemplar in the renin inhibition in vitro experiments [4] | other results |
| --- | --- | --- | --- | --- | --- | --- | --- | --- | --- | --- | --- |
| C=C1/C(=C\C=C2/CCC[C@@]3(C)C2CCC3[C@](C)(CC#CC(O)(C(F)(F)F)C(F)(F)F)CCCC(C)(C)O)CC(O)C[C@@H]1O (stereo partly drawn) [Compound 1, (20S)-1,25-Dihydroxy-20-(5,5,5-trifluoro-4-hydroxy-4-trifluoromethyl-pent-2-ynyl)-cholecalciferol] | 0.3 µg/kg | greater efficacy than calcitriol | – | – | – | – | – | – | – | – | Tibia (μCT) increased over OVX controls ([2]; 0.3 μg/kg oral): 90%; vertebrae (L5) increase over OVX control rats ([2]; 0.3 μg/kg oral): 8%; efficacy vs. calcitrol on travecular bone volume ([2]; 0.3 μg/kg, FIG. 4): higher; Tibia (μCT) increased over OVX controls ([2]; 1 μg/kg oral): 114%; vertebrae (L5) increase over OVX control rats ([2]; 1 μg/kg oral): 12% |
| C=C1/C(=C\C=C2/CCC[C@@]3(C)C2CCC3[C@](C)(C/C=C\C(O)(C(F)(F)F)C(F)(F)F)CCCC(C)(C)O)CC(O)C[C@@H]1O (stereo partly drawn) [Compound 2, (20S)-1,25-Dihydroxy-20-((2Z)-5,5,5-trifluoro-4-hydroxy-4-trifluoromethyl-pent-2-enyl)cholecalciferol] | 0.3 µg/kg | – | one of ten rats | demonstrated efficacy | greater or equal positive results compared to Zemplar | equal or more beneficial results | provided bone protection on the tibia and vertebrae | good efficacy | stronger inhibitition of renin in vitro over calcitriol | greater or equal positive results compared to Zemplar | osteoid thickening (tibia) ([3]; 1 μg/kg): normal levels; rats with mild porous levels of femur cortical porosity ([3]; 1 μg/kg): four of ten rats; femur cortical porosity ([3]; 3 μg/kg): nine rats demonstrated normal levels; osteoid thickening (tibia) ([3]; 3 μg/kg): normal levels; peritrabecular fibrosis (tibia) ([3]; 3 μg/kg): normal levels |
| C=C1/C(=C\C=C2/CCC[C@@]3(C)C2CCC3[C@](C)(C/C=C/C(O)(C(F)(F)F)C(F)(F)F)CCCC(C)(C)O)CC(O)C[C@@H]1O (stereo partly drawn) [Compound 3, (20S)-1,25-Dihydroxy-20-[(2E)-5,5,5-trifluoro-4-hydroxy-4-trifluoromethyl-pent-2-enyl]-cholecalciferol] | – | greater efficacy than calcitriol | – | – | – | – | – | – | – | – | IC50 [5]: 0.044 nM |
| C=C1/C(=C\C=C2/CCC[C@@]3(C)C2CCC3[C@@](C)(CC#CC(O)(C(F)(F)F)C(F)(F)F)CCCC(C)(C)O)CC(O)C[C@@H]1O (stereo partly drawn) [Compound 4, (20R)-1,25-Dihydroxy-20-(5,5,5-trifluoro-4-hydroxy-4-trifluoromethyl-pent-2-ynyl)-cholecalciferol] | – | – | normal levels | demonstrated efficacy | greater or equal positive results compared to Zemplar | equal or more beneficial results | provided bone protection on the tibia and vertebrae | good efficacy | stronger inhibitition of renin in vitro over calcitriol | greater or equal positive results compared to Zemplar | osteoid thickening (tibia) ([3]; 0.03 μg): normal levels; peritrabecular fibrosis (tibia) ([3]; 0.03 μg/kg): one of nine rats; rats with mild porous levels of femur cortical porosity ([3]; 0.03 μg/kg): four of nine rats; osteoid thickening (tibia) ([3]; 0.1 μg/kg): one of nine rats; rats with mild porous levels of femur cortical porosity ([3]; 0.1 μg/kg): one of nine rats |
| C=C1/C(=C\C=C2/CCC[C@@]3(C)C2CCC3[C@@](C)(C/C=C/C(O)(C(F)(F)F)C(F)(F)F)CCCC(C)(C)O)CC(O)C[C@@H]1O (stereo partly drawn) [Compound 5, (20R)-1,25-Dihydroxy-20-[(2E)-5,5,5-trifluoro-4-hydroxy-4-trifluoromethyl-pent-2-enyl]-cholecalciferol] | 0.1 µg/kg | – | – | – | – | – | – | – | – | – | – |
| C=C1/C(=C\C=C2/CCC[C@@]3(C)C2CCC3[C@](C)(CC#CC(O)(C(F)(F)F)C(F)(F)F)CCCC(C)(C)O)CC(O)C[C@@H]1F (stereo partly drawn) [Compound 6, (20S)-1α-Fluoro-25-hydroxy-20-(5,5,5-trifluoro-4-hydroxy-4-trifluoromethyl-pent-2-ynyl)-cholecalciferol] | 100 µg/kg | – | – | – | – | – | – | – | – | – | – |
